Data reported in US9492471B2, “Methods of treating a disease or disorder associated with Bruton'S Tyrosine Kinase” (Celgene Avilomics Research, Inc., priority 2013, dated 2016).
Where two headings read alike, the source gives them in different places.

How the values were obtained:
Assay in all cases: HotSpot kinase profiling
Assay type in all cases: biochemical
[1] = target: T1, TXK (Homo sapiens, UniProt P42681)
T1 construct: purchased Reaction Biology Corp
T1 sequence (P42681 1-527): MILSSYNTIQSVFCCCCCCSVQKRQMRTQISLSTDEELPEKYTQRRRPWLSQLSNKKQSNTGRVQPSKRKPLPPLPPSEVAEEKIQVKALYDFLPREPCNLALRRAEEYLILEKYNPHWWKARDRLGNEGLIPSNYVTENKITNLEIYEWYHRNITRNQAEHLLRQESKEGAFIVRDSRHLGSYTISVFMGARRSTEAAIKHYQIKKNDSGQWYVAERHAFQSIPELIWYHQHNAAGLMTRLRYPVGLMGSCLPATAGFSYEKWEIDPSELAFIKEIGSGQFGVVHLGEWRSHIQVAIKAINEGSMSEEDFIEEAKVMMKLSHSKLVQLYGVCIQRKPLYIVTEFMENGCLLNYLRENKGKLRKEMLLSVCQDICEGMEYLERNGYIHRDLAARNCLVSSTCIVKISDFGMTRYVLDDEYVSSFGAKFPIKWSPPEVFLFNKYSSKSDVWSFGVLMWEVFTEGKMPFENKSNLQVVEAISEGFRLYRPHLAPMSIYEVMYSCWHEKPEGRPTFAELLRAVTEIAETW
Summary of the method: (§1)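 P81 filtration radiometric readout; 2 h incubation at room temperature; 0.1% phosphoric acid wash; DMSO negative control; % inhibition, mean of replicate runs.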

[2] = target: T2, FGR (Homo sapiens, UniProt P09769)
T2 construct: purchased Reaction Biology Corp
T2 sequence (P09769 whole entry): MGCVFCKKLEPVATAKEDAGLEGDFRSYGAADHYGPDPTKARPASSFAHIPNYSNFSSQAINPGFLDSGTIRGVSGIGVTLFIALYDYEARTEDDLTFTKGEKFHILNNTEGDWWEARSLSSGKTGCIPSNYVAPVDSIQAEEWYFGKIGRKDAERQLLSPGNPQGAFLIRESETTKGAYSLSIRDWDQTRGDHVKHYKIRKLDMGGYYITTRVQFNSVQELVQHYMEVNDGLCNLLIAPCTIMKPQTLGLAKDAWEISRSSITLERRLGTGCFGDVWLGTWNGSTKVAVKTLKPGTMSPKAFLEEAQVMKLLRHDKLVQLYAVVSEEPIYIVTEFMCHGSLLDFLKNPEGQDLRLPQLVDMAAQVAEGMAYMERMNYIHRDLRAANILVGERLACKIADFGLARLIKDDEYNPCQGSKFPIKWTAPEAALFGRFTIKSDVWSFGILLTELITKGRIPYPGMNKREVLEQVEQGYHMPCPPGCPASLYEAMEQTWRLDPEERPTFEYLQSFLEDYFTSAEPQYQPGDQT
Summary of the method: as §1

[3] = target: T3, HIPK3 (Homo sapiens, UniProt Q9H422)
T3 construct: purchased Reaction Biology Corp
T3 sequence (Q9H422 whole entry): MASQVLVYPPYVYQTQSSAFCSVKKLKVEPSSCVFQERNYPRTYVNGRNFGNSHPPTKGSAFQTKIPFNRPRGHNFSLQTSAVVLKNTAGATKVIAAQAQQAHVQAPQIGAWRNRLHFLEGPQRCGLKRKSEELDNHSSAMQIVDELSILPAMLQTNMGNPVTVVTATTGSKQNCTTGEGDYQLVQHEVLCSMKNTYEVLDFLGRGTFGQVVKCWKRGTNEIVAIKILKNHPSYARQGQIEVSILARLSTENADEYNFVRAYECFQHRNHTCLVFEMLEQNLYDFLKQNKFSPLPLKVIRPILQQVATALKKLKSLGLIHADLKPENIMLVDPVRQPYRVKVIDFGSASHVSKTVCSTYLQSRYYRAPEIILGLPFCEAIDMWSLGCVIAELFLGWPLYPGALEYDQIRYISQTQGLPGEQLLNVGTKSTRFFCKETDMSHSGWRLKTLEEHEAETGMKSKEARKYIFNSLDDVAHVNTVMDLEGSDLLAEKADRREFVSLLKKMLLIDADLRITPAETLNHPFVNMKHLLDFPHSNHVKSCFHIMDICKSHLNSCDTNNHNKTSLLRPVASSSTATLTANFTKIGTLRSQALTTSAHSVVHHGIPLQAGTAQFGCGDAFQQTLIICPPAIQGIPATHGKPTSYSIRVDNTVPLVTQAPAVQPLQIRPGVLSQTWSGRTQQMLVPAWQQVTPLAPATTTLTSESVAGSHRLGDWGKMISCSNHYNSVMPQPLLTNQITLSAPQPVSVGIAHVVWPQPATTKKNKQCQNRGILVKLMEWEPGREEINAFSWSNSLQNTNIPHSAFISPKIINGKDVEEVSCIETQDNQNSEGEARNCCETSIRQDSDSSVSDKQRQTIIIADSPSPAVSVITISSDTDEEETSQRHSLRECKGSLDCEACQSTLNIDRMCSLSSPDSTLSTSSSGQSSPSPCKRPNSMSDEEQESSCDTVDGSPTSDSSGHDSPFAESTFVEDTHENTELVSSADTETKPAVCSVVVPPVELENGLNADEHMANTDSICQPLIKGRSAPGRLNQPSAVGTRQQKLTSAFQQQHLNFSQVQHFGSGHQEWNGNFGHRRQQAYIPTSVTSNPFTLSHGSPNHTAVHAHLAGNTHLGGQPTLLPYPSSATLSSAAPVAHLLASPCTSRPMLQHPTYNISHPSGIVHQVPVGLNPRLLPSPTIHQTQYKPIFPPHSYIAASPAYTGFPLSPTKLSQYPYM
Summary of the method: as §1

[4] = target: T4, PKG2/PRKG2 (Homo sapiens, UniProt Q13237)
T4 construct: purchased Reaction Biology Corp
T4 sequence (Q13237 1-762): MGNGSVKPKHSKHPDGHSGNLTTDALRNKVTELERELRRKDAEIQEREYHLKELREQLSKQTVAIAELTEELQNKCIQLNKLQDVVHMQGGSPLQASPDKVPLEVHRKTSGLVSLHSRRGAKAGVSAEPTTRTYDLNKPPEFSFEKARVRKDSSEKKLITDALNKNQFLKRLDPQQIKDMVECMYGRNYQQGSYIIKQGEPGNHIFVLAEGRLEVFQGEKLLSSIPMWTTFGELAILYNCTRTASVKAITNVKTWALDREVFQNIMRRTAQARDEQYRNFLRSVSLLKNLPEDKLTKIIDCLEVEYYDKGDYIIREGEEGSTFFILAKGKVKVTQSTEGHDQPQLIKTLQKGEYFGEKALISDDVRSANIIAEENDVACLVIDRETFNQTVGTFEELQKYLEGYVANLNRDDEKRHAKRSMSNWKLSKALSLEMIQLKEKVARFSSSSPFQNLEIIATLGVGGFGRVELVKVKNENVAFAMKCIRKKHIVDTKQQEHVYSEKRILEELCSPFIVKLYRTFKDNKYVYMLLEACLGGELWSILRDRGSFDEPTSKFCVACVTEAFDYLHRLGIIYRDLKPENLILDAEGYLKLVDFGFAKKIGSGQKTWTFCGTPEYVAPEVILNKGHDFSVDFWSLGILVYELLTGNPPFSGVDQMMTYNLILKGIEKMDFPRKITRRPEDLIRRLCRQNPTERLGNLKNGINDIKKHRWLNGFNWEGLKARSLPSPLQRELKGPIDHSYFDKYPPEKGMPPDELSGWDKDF
Summary of the method: as §1

[5] = read-out: % Enzyme Activity (relative to DMSO controls) Run 1
[6] = read-out: % Enzyme Activity (relative to DMSO controls) Run 2

Which inhibition at 3 µM [1] does the source give for `C=CC(=O)Nc1cccc(Nc2nc(Nc3ccc(OCCOC)c(F)c3)ncc2F)c1` [Compound 2] here?
The inhibition at 3 µM was 99.8%.

And the remaining activity at 3 µM [1, 5]?
The remaining activity at 3 µM was 0.42%.

What about the remaining activity at 3 µM [1, 6] of the same compound?
The remaining activity at 3 µM was 0.03%.

What about the inhibition at 3 µM [2] of the same compound?
Its inhibition at 3 µM is 59.9%.

And the remaining activity at 3 µM [2, 5]?
Its remaining activity at 3 µM is 39.7%.

And the remaining activity at 3 µM [2, 6]?
The remaining activity at 3 µM was 40.5%.

What about the inhibition at 3 µM [3] of the same compound?
The inhibition at 3 µM was -15.1%.

What about the remaining activity at 3 µM [3, 5] of the same compound?
The remaining activity at 3 µM was 112%.

What about the remaining activity at 3 µM [3, 6] of the same compound?
Its remaining activity at 3 µM is 118%.

And the inhibition at 3 µM [4]?
The inhibition at 3 µM was 14.2%.

And the remaining activity at 3 µM [4, 5]?
The remaining activity at 3 µM was 87.2%.

And the remaining activity at 3 µM [4, 6]?
The remaining activity at 3 µM was 84.5%.
